Experimental data from publication PMC12226733, “Evolution of iGluR ligand specificity, polyamine regulation, and ion selectivity inferred from a placozoan epsilon receptor” (Communications Biology, 2025).
Values joined by “and” are separate entries in the source; they are usually repeats but may differ in a detail not shown here. Equal values may be shown once.

Assays:
GluA2 D611A + γ2 = biological target: T1, GluA2 D611A + γ2 (Homo sapiens, UniProt P42262, D611A); assay: outside-out patch clamp, block by intracellular spermine, HEK-293T/17 cells; type: biochemical; settings: for Normalized conductance (Gnorm) AMPA D611A + γ2 / Normalized current (Inorm) AMPA D611A + γ2: single recordings and AVG
T1 construct: expressed in transfected cells; host or cells: HEK-293T/17
T1 sequence (P42262 25-883 D611A): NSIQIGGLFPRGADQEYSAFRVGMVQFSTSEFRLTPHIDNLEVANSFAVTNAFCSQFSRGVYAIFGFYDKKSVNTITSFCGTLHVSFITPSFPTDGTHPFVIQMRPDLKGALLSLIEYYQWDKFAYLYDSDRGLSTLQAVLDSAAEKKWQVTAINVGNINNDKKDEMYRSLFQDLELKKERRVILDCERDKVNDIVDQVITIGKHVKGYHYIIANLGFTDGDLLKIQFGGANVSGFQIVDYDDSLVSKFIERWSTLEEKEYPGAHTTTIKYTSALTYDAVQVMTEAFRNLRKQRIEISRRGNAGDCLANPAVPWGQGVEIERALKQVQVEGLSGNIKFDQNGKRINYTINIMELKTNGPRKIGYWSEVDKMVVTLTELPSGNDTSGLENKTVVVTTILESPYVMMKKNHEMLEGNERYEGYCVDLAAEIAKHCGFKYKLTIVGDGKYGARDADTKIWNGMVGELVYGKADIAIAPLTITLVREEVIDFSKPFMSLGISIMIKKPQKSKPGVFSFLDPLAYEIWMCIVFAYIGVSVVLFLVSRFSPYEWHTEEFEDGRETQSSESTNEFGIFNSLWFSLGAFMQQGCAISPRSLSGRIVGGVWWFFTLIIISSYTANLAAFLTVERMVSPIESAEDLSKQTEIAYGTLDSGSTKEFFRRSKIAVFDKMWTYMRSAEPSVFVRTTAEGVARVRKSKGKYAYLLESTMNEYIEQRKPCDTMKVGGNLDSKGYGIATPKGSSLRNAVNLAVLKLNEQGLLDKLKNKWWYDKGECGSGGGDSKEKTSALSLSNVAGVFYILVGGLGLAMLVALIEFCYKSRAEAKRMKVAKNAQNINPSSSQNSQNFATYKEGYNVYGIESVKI
T1 sequence (Q9Y698 whole entry partner): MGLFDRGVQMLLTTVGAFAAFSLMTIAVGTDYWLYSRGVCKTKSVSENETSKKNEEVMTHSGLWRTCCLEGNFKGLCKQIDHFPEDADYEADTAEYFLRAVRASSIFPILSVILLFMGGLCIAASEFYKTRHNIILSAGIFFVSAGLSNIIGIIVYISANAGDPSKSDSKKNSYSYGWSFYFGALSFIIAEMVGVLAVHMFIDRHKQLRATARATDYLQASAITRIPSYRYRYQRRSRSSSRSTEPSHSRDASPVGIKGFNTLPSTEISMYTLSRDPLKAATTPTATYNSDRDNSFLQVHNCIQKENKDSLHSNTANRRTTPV
Procedure: (§1) Parallel experiments were carried out in human GluA2 homotetramers bearing equivalent Q/R/N and +4 site mutations to compare the regulation of voltage-dependent polyamine block within the broader context of mammalian receptors. Experimental design remained the same, except for using 10 mM glutamate as the agonist used to evoke membrane currents (Fig. 7a, d, g, and j). […] Their properties were accordingly compared to wildtype GluA2(Q) co-expressed with TARP-γ2.
(§2) HEK-293T/17 cells (ATCC) were maintained in MEM supplemented with GlutaMAX and 10% fetal bovine serum (FBS) at 37 °C and 5% CO2. […] Transient transfections were carried out 48 h post-plating using the calcium phosphate precipitation method. After 6–8 hours, cells were washed twice with PBS and maintained in fresh medium. Cells transfected with mammalian GluA2 cDNA (plasmid vector described above) were returned to an incubator at 37 °C for 24–48 hours and cells transfected with Epsilon GluE1αA were incubated at 28 °C for 48–72 hours. In cells co-transfected with TARP-γ2, 30 μM NBQX was included in the medium to minimize AMPAR/auxiliary-induced cytotoxicity. All constructs were co-transfected with a plasmid encoding enhanced green fluorescent protein (eGFP) to identify transfected cells. Electrophysiology responses were recorded from outside-out patches excised from transfected cells. Recording pipettes were composed of borosilicate glass (3 to 6 megaohm, King Precision Glass) coated with dental wax to reduce electrical noise. All recordings were performed using Axopatch 200B amplifier (Molecular Devices, LLC). Current records were filtered at 5 or 10 kHz and sampled at 25–50 kHz. Series resistance (3 to 12 megaohms) was compensated by 95%. Recordings were performed at a range of holding potentials from −100 mV to 100 mV to study polyamine block. Data was acquired using pClamp9 software (Molecular Devices, LLC). All experiments were performed at room temperature. All chemicals were purchased from Sigma-Aldrich, unless otherwise indicated. External solution contained (in mM): 150 NaCl, 5 HEPES, 0.1 CaCl2, 0.1 MgCl, and […], pH 7.3–7.4. […] The osmotic pressure of all solutions was adjusted to 295 to 300 mOsm with sucrose. […] Stocks were thawed on the day of the experiment and used to prepared agonist-containing external solutions. Raw data for all electrophysiology experiments are provided in Supplementary Data 3. Current-voltage (I-V) relationships were fit using Origin 7 (OriginLab) using a ninth order polynomial function to estimate the reversal potential (Vrev).
(§3) Agonist-evoked membrane conductance (G) was calculated using the following equation: G=I/(V−Vrev)
(§4) Conductance-voltage (G-V) relationships were fit using Origin 7 (OriginLab) with the single permeant blocker model as done previously[46]: G=Gmax/1+[Spm]/Kd Where Gmax is the maximal conductance, [Spm] is the internal Spm concentration, and Kd is the dissociation constant.
(§5) Kd is defined as: Kd=koff+kperm/kon=sumofexitrates/bindingrate
(§6) And redefined as: Kd=g*exp(V/h)+L*exp(V/k) Where h and k are voltage dependencies of g and L, respectively, and at 0 mV: g=koff/konandL=kperm/kon

GluA2(Q) wt + γ2 = biological target: T2, GluA2(Q) wt + γ2 (Homo sapiens, UniProt P42262); assay: as above; type: biochemical; settings: for Normalized conductance (Gnorm) GluA2 wild type + γ2 / Normalized current (Inorm) GluA2 wild type + γ2: single recordings and AVG;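 on Normalized conductance (Gnorm) GluA2 wild type + γ2: normalized to each receptor's own maximal conductance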
T2 construct: expressed in transfected cells; host or cells: HEK-293T/17
T2 sequence (P42262 25-883): as the sequence (P42262 25-883 D611A) above, with A587D counted along it
T2 sequence (Q9Y698 whole entry partner): as the sequence (Q9Y698 whole entry partner) above
Procedure: as §1, §2, §3, §4, §5, §6

NCCCNCCCCNCCCN [spermine]
Normalized conductance (Gnorm) AMPA D611A + γ2 (GluA2 D611A + γ2; 0 mV): 0.81 and 0.75 and 0.86 and 0.99 and 0.85
Normalized conductance (Gnorm) AMPA D611A + γ2 (GluA2 D611A + γ2; 10 mV): 0.83 and 0.76 and 0.89 and 0.84
Normalized current (Inorm) AMPA D611A + γ2 (GluA2 D611A + γ2; 10 mV): 0.05 and 0.0569 and 0.06 and 0.0738
Normalized conductance (Gnorm) AMPA D611A + γ2 (GluA2 D611A + γ2; 20 mV): 0.86 and 0.79 and 0.92 and 0.87
Normalized current (Inorm) AMPA D611A + γ2 (GluA2 D611A + γ2; 20 mV): 0.15 and 0.14 and 0.17
Normalized conductance (Gnorm) AMPA D611A + γ2 (GluA2 D611A + γ2; 30 mV): 0.92 and 0.81 and 0.94 and 0.90
Normalized current (Inorm) AMPA D611A + γ2 (GluA2 D611A + γ2; 30 mV): 0.26 and 0.22 and 0.25 and 0.27
Normalized conductance (Gnorm) AMPA D611A + γ2 (GluA2 D611A + γ2; 40 mV): 0.93 and 0.87 and 0.95 and 0.91
Normalized current (Inorm) AMPA D611A + γ2 (GluA2 D611A + γ2; 40 mV): 0.36 and 0.33 and 0.32 and 0.37 and 0.35
Normalized conductance (Gnorm) AMPA D611A + γ2 (GluA2 D611A + γ2; 50 mV): 0.97 and 0.91 and 0.99 and 0.92 and 0.95
Normalized current (Inorm) AMPA D611A + γ2 (GluA2 D611A + γ2; 50 mV): 0.49 and 0.44 and 0.47 and 0.45 and 0.46
Normalized conductance (Gnorm) AMPA D611A + γ2 (GluA2 D611A + γ2; 60 mV): 0.94 and 0.96 and 0.99
Normalized current (Inorm) AMPA D611A + γ2 (GluA2 D611A + γ2; 60 mV): 0.57 and 0.55 and 0.56
Normalized conductance (Gnorm) AMPA D611A + γ2 (GluA2 D611A + γ2; 70 mV): 0.98 and 1.00 and 0.92 and 0.99 and 0.97
Normalized current (Inorm) AMPA D611A + γ2 (GluA2 D611A + γ2; 70 mV): 0.71 and 0.68 and 0.62 and 0.67
Normalized conductance (Gnorm) AMPA D611A + γ2 (GluA2 D611A + γ2; 80 mV): 0.99 and 0.97 and 1.04 and 1.00
Normalized current (Inorm) AMPA D611A + γ2 (GluA2 D611A + γ2; 80 mV): 0.82 and 0.76 and 0.81 and 0.78 and 0.79
Normalized conductance (Gnorm) AMPA D611A + γ2 (GluA2 D611A + γ2; 90 mV): 1.00 and 0.88 and 0.98 and 0.95
Normalized current (Inorm) AMPA D611A + γ2 (GluA2 D611A + γ2; 90 mV): 0.94 and 0.78 and 0.87 and 0.86
Normalized conductance (Gnorm) AMPA D611A + γ2 (GluA2 D611A + γ2; 100 mV): 0.97 and 0.96 and 1.00 and 0.98
Normalized current (Inorm) AMPA D611A + γ2 (GluA2 D611A + γ2; 100 mV): 1.02 and 0.95 and 0.99
Normalized conductance (Gnorm) AMPA D611A + γ2 (GluA2 D611A + γ2; -10 mV): 0.83 and 0.80 and 0.82 and 0.89
Normalized conductance (Gnorm) AMPA D611A + γ2 (GluA2 D611A + γ2; -20 mV): 0.81 and 0.87 and 0.82 and 0.91 and 0.85
Normalized conductance (Gnorm) AMPA D611A + γ2 (GluA2 D611A + γ2; -30 mV): 0.82 and 0.87 and 0.93 and 0.91 and 0.88
Normalized conductance (Gnorm) AMPA D611A + γ2 (GluA2 D611A + γ2; -40 mV): 0.83 and 0.87 and 0.84 and 0.92
Normalized conductance (Gnorm) AMPA D611A + γ2 (GluA2 D611A + γ2; -50 mV): 0.86 and 0.81 and 1.01 and 0.95 and 0.91
Normalized conductance (Gnorm) AMPA D611A + γ2 (GluA2 D611A + γ2; -60 mV): 0.89 and 0.96 and 0.95 and 0.94
Normalized conductance (Gnorm) AMPA D611A + γ2 (GluA2 D611A + γ2; -70 mV): 0.89 and 0.92 and 0.95 and 0.91
Normalized conductance (Gnorm) AMPA D611A + γ2 (GluA2 D611A + γ2; -80 mV): 0.89 and 0.86 and 0.96 and 0.90
Normalized conductance (Gnorm) AMPA D611A + γ2 (GluA2 D611A + γ2; -90 mV): 0.86 and 0.94 and 0.98 and 0.93
Normalized conductance (Gnorm) AMPA D611A + γ2 (GluA2 D611A + γ2; -100 mV): 0.96 and 0.95 and 0.98
Normalized current (Inorm) AMPA D611A + γ2 (GluA2 D611A + γ2; -100 mV): -1.00
h, voltage dependency of block onset (GluA2 D611A + γ2; GluA2 D611A + γ2): −58.8 ± 8.8 mV
k, voltage dependency of block relief (GluA2 D611A + γ2; GluA2 D611A + γ2): 20.8 ± 3.7 mV
Kd (GluA2 D611A + γ2; GluA2 D611A + γ2, 30 µM internal Spm, 10 mM glutamate, read-out: Kd(0mV)): 169 ± 54.6 µM
Normalized conductance (Gnorm) GluA2 wild type + γ2 (GluA2(Q) wt + γ2; 0 mV): 0.51 and 0.59 and 0.49 and 0.67 and 0.55 and 0.56
Normalized conductance (Gnorm) GluA2 wild type + γ2 (GluA2(Q) wt + γ2; 10 mV): 0.45 and 0.34 and 0.59 and 0.41
Normalized current (Inorm) GluA2 wild type + γ2 (GluA2(Q) wt + γ2; 10 mV): 0.0271 and 0.03 and 0.0219 and 0.0374 and 0.0215 and 0.0279
Normalized conductance (Gnorm) GluA2 wild type + γ2 (GluA2(Q) wt + γ2; 20 mV): 0.46 and 0.44 and 0.31 and 0.56 and 0.39 and 0.43
Normalized current (Inorm) GluA2 wild type + γ2 (GluA2(Q) wt + γ2; 20 mV): 0.06 and 0.0741 and 0.05 and 0.09 and 0.07
Normalized conductance (Gnorm) GluA2 wild type + γ2 (GluA2(Q) wt + γ2; 30 mV): 0.53 and 0.56 and 0.39 and 0.59 and 0.50 and 0.51
Normalized current (Inorm) GluA2 wild type + γ2 (GluA2(Q) wt + γ2; 30 mV): 0.12 and 0.15 and 0.10 and 0.13
Normalized conductance (Gnorm) GluA2 wild type + γ2 (GluA2(Q) wt + γ2; 40 mV): 0.62 and 0.71 and 0.51 and 0.66 and 0.63
Normalized current (Inorm) GluA2 wild type + γ2 (GluA2(Q) wt + γ2; 40 mV): 0.20 and 0.26 and 0.18 and 0.23 and 0.22
Normalized conductance (Gnorm) GluA2 wild type + γ2 (GluA2(Q) wt + γ2; 50 mV): 0.72 and 0.83 and 0.63 and 0.75 and 0.82
Normalized current (Inorm) GluA2 wild type + γ2 (GluA2(Q) wt + γ2; 50 mV): 0.30 and 0.38 and 0.28 and 0.34 and 0.37 and 0.33
Normalized conductance (Gnorm) GluA2 wild type + γ2 (GluA2(Q) wt + γ2; 60 mV): 0.78 and 0.91 and 0.73 and 0.84 and 0.90 and 0.83
Normalized current (Inorm) GluA2 wild type + γ2 (GluA2(Q) wt + γ2; 60 mV): 0.39 and 0.50 and 0.46 and 0.45
Normalized conductance (Gnorm) GluA2 wild type + γ2 (GluA2(Q) wt + γ2; 70 mV): 0.82 and 0.96 and 0.81 and 0.89 and 0.95
Normalized current (Inorm) GluA2 wild type + γ2 (GluA2(Q) wt + γ2; 70 mV): 0.49 and 0.62 and 0.51 and 0.57
Normalized conductance (Gnorm) GluA2 wild type + γ2 (GluA2(Q) wt + γ2; 80 mV): 0.83 and 1.04 and 0.88 and 0.91 and 0.99 and 0.93
Normalized current (Inorm) GluA2 wild type + γ2 (GluA2(Q) wt + γ2; 80 mV): 0.57 and 0.78 and 0.64 and 0.67 and 0.75 and 0.68
Normalized conductance (Gnorm) GluA2 wild type + γ2 (GluA2(Q) wt + γ2; 90 mV): 0.86 and 0.93 and 1.02 and 0.94
Normalized current (Inorm) GluA2 wild type + γ2 (GluA2(Q) wt + γ2; 90 mV): 0.68 and 0.77 and 0.73 and 0.87 and 0.76
Normalized current (Inorm) GluA2 wild type + γ2 (GluA2(Q) wt + γ2; 100 mV): 0.71 and 0.89 and 0.76 and 1.01 and 0.84
Normalized conductance (Gnorm) GluA2 wild type + γ2 (GluA2(Q) wt + γ2; -10 mV): 0.69 and 0.62 and 0.75
Normalized current (Inorm) GluA2 wild type + γ2 (GluA2(Q) wt + γ2; -10 mV): -0.0852
Normalized conductance (Gnorm) GluA2 wild type + γ2 (GluA2(Q) wt + γ2; -20 mV): 0.78 and 0.82 and 0.74 and 0.85 and 0.80
Normalized conductance (Gnorm) GluA2 wild type + γ2 (GluA2(Q) wt + γ2; -30 mV): 0.84 and 0.88 and 0.83 and 0.85 and 0.92 and 0.86
Normalized conductance (Gnorm) GluA2 wild type + γ2 (GluA2(Q) wt + γ2; -40 mV): 0.90 and 0.92 and 0.89 and 0.96 and 0.91
Normalized conductance (Gnorm) GluA2 wild type + γ2 (GluA2(Q) wt + γ2; -50 mV): 0.96 and 0.94 and 0.92 and 0.93 and 0.98 and 0.95
Normalized conductance (Gnorm) GluA2 wild type + γ2 (GluA2(Q) wt + γ2; -60 mV): 0.99 and 0.97 and 0.98
Normalized conductance (Gnorm) GluA2 wild type + γ2 (GluA2(Q) wt + γ2; -70 mV): 1.01 and 0.98 and 0.99 and 0.97 and 0.96
Normalized conductance (Gnorm) GluA2 wild type + γ2 (GluA2(Q) wt + γ2; -80 mV): 1.01 and 0.98 and 1.00 and 0.99
Normalized conductance (Gnorm) GluA2 wild type + γ2 (GluA2(Q) wt + γ2; -90 mV): 1.00 and 0.99 and 0.98
Normalized conductance (Gnorm) GluA2 wild type + γ2 (GluA2(Q) wt + γ2; -100 mV): 1.02 and 1.00 and 0.95
Normalized current (Inorm) GluA2 wild type + γ2 (GluA2(Q) wt + γ2; -100 mV): -1.00
h, voltage dependency of block onset (GluA2(Q) wt + γ2; GluA2(Q) wt + γ2): −16.7 ± 1.9 mV
k, voltage dependency of block relief (GluA2(Q) wt + γ2; GluA2(Q) wt + γ2): 18.2 ± 3.0 mV
Kd (GluA2(Q) wt + γ2; GluA2(Q) wt + γ2, 30 µM internal Spm, 10 mM glutamate, read-out: Kd(0mV)): 38.4 ± 11.9 µM
h (GluA2(Q) wt + γ2; fit of Gnorm vs voltage, GluA2 wild type + γ2, single recordings): -13.23
